# Measured values taken from patent EP4520824A1, “DEO[…] GENERATES FL[…] USES THEREOF” (Ústav organické chemie a biochemie Akademie ved Ceske …, priority 2023, dated 2025).
# Test system: chromogenic deoxyribozyme, optimized variant (Chro 4, SEQ ID NO: 39)
# Experiment: Self-phosphorylation kinetics of chromogenic deoxyribozyme with 4-NPP (ligation assay)
# Type: biochemical
# Details: self-phosphorylation with 4-NPP as substrate; 200 mM KCl, 1 mM ZnCl2, 50 mM HEPES pH 7.4
smiles,measurement,value
"O=[N+]([O-])c1ccc(OP(=O)(O)O)cc1 [4-NPP, 4-nitrophenyl phosphate]",catalytic efficiency,~10^3 M^-1 min^-1
